In article PMC4297217 (Therapeutic Drug Monitoring, 2015):

Assays:
[1] = Sertraline serum concentration-to-dose; format: in vivo, patients; conditions: concomitant PPI vs control group without PPI
[2] = Citalopram serum concentration-to-dose
[3] = with omeprazole, cited from earlier work
[4] = Escitalopram serum concentration-to-dose; conditions: patients aged 80 years; combined linear and square age model

## Cc1c(OCC(F)(F)F)ccnc1C[S+]([O-])c1nc2ccccc2[nH]1 (stereo not drawn) [Lansoprazole, lansoprazole]
[1]
  Expected Sertraline C/D Ratio Percent Change: no significant differences

## CN(C)CCCC1(c2ccc(F)cc2)OCc2cc(C#N)ccc21 (stereo not drawn) [Citalopram, citalopram]
[2]; patients aged 80 years, combined linear and square age model
  Citalopram C/D ratio, age effect: roughly doubled

## COc1ccc2[nH]c([S+]([O-])Cc3ncc(C)c(OC)c3C)nc2c1 (stereo not drawn) [Omeprazole, omeprazole]
[1]
  Expected Sertraline C/D Ratio Percent Change: no significant differences
[3]; 9 healthy subjects
  increase in the concentration of R-citalopram: 25%
  increase in the concentration of S-citalopram: ~2 fold
[3]; healthy volunteers
  mean increase in the plasma concentration of escitalopram: ~100%

## CN(C)CCC[C@@]1(c2ccc(F)cc2)OCc2cc(C#N)ccc21 [Escitalopram, escitalopram]
[4]
  Escitalopram C/D ratio, age effect: roughly doubled

## COc1ccnc(C[S+]([O-])c2nc3ccc(OC(F)F)cc3[nH]2)c1OC (stereo not drawn) [Pantoprazole, pantoprazole]
[1]
  Expected Sertraline C/D Ratio Percent Change: no significant differences
[2]; concomitant PPI vs control group without PPI
  Expected Citalopram C/D Ratio Percent Change: No significant effect
